Experimental data: US11220534B2, “Treatment of neurological diseases” (Lancaster University Business Enterprises Limited, priority 2016, dated 2022)
Where no end group is shown, it is not given here. [ ]: non-standard residue; d: D form. Aib = CC(C)(N)C(=O)O

Tests used:
[1] = test system: APP/PS1 mice; assay: Y-maze test for working memory in AD mice; type: in vivo; conditions: FIG. 6, N=8-14 per group
Text: Materials and methods in Example 2 are the same as Example 1 except when stated. Reagents used in Example 2 only include antibodies to p-PI3Kp85, PI3Kp85, p-Akt (ser473), Akt, p-GSK3β ([…]), and GSK3β from Abcam, Inc. Cambridge, UK. The antibody to p-tau (AT8) from Thermo Scientific USA. Mouse Anti-β-actin, Anti-Rabbit IgG, Anti-mouse IgG, CY3-Anti-mouse IgG, RIPA Lysate, BCA Protein Assay Kit, DAPI staining solution and Anti-fluorescence decay agent from Boster (Wuhan, China). Spatial working memory was assessed by recording spontaneous alternation behaviour in a Y-maze. The maze was made of three 30 cm long, 7 cm high, 15 cm wide arms and the arms converged in an equilateral triangular central area. Each mouse was placed at the central triangular area and allowed to move freely through the maze during an 8-min session. The total arm entries and arm order was recorded by Smart 3.0 software system. Alternation was defined as successive entries into the three arms, on overlapping triplet sets. The percent alternation was calculated as the ratio of actual to possible alternations (defined as the total number of arm entries minus 2) multiplied by 100.

[2] = test system: APP/PS1 mice; assay: Classical Morris water maze test; type: in vivo
Text: Materials and methods in Example 2 are the same as Example 1 except when stated. Reagents used in Example 2 only include antibodies to p-PI3Kp85, PI3Kp85, p-Akt (ser473), Akt, p-GSK3β (Y216), and GSK3β from Abcam, Inc. Cambridge, UK. The antibody to p-tau (AT8) from Thermo Scientific USA. Mouse Anti-β-actin, Anti-Rabbit IgG, Anti-mouse IgG, CY3-Anti-mouse IgG, RIPA Lysate, BCA Protein Assay Kit, DAPI staining solution and Anti-fluorescence decay agent from Boster (Wuhan, China).
Classical Morris water maze (MWM) test was used to investigate spatial reference memory of mouse. The water maze mainly included a stainless steel pool and a platform in the pool for escape. There were several landmarks fixed to the walls of the water maze. The pool was filled with tap water at 22±2° C. The first phase was acquisition trial phase which was consisted of five training days (days 1-5) and four trials each day. The pool (diameter, 120 cm; high, 50 cm) was divided into four quadrants and the escape platform (diameter, 12 cm) hidden 1 cm beneath the water surface was placed in the center of the first quadrant. […] The escape latencies were recorded by Ethovision 3.0 software system (Noldus Information Technology, the Netherlands). […] The percentage of swimming time in target quadrant (the first quadrant) and frequency of platform crossing were recorded. […] Swimming time to target was recorded.

[3] = test system: APP/PS1 mice; assay: In vivo hippocampal measurements of L-LTP in AD mice; conditions: N=6 per group
Text: Materials and methods in Example 2 are the same as Example 1 except when stated. Reagents used in Example 2 only include antibodies to p-PI3Kp85, PI3Kp85, p-Akt (ser473), Akt, p-GSK3β ([…]), and GSK3β from Abcam, Inc. Cambridge, UK. The antibody to p-tau (AT8) from Thermo Scientific USA. Mouse Anti-β-actin, Anti-Rabbit IgG, Anti-mouse IgG, CY3-Anti-mouse IgG, RIPA Lysate, BCA Protein Assay Kit, DAPI staining solution and Anti-fluorescence decay agent from Boster (Wuhan, China). Mice were anesthetized with urethane (Sigma, UK, 1.5 g/kg, i.p.) and placed in a stereotaxic apparatus (RWD Life Science, China) for L-LTP recording. Cut off the scalp and expose the skull, small holes were drilled on one side of the skull (2.0 mm posterior to bregma and 1.5 mm lateral to the midline). […] Baseline fEPSPs were elicited by test stimuli at an interval of 30 seconds and 30 minutes fEPSPs were recorded to observe whether the underlying synaptic transmission is affected. […] The change in PPF ratio, calculated by dividing the slope of the second fEPSP by the slope of the first fEPSP, is viewed to be related with the changes in neurotransmitter release from presynaptic terminals. […] The fEPSPs were recorded for 180 minutes after HFS. All events were recorded by a biological signal processing system (Chengdu Instruments Ltd, China). […]

[4] = test system: PI3K/AKT/GSK3β signalling pathway; assay: Western blotting for hippocampal levels of PI3K/AKT/GSK3β; type: in vivo; conditions: APP/PS1 mice; FIG. 11; N=6 per group
Text: Materials and methods in Example 2 are the same as Example 1 except when stated. Reagents used in Example 2 only include antibodies to p-PI3Kp85, PI3Kp85, p-Akt (ser473), Akt, p-GSK3β ([…]), and GSK3β from Abcam, Inc. Cambridge, UK. The antibody to p-tau (AT8) from Thermo Scientific USA. Mouse Anti-β-actin, Anti-Rabbit IgG, Anti-mouse IgG, CY3-Anti-mouse IgG, RIPA Lysate, BCA Protein Assay Kit, DAPI staining solution and Anti-fluorescence decay agent from Boster (Wuhan, China). The hippocampi of mouse were dissected and homogenized in tissue protein extraction reagent, and protein concentration was measured using BCA Protein Assay Kit. A total of 50 μg of protein was used from each sample. Sample proteins were separated on 12% SDS-polyacrylamide gels. After that, the proteins were transferred onto PVDF membranes and nonspecific binding was blocked with 5% BSA. A primary antibody was used to incubate the membranes overnight at 4° C., followed by a secondary antibody for 2 h. The optical density of the target strip (p-PI3K, t-PI3K, p-AKT, t-AKT, p-GSK3β and t-GSK3β) was analyzed by using a gel image processing system. Data were analysed using a one-way ANOVA with post-hoc Bonferroni tests. The results are illustrated in FIGS. 5 to 11.

Substance: YXEGTFTSDYSIYLDKQAAXEFVNWLLAGGPSSGAPPPSKRRQRRKKRGY-NH2 (Y[Aib]EGTFTSDYSIYLDKQAA[Aib]EFVNWLLAGGPSSGAPPPSKRRQRRKKRGY-NH2) [DA5, No. 12; X=aminoisobutyric acid]
- spatial working memory (percent alternation, Y-maze) [1]: improved spatial working memory
- probe test, recall of the escape route (classical Morris water maze) ([2]; APP/PS1 mice vs APP/PS1-saline, FIG. 7c, 7d): recalled the escape route to a greater extent than APP/PS1-saline mice
- disorder in spatial memory (classical Morris water maze) ([2]; APP/PS1 mice, FIG. 7, N=8-14 per group): ameliorated
- levels of L-LTP post neuronal stimuli ([3]; APP/PS1 mice, FIG. 9b): maintained high levels of L-LTP post neuronal stimuli
- depression of L-LTP in the hippocampus ([3]; APP/PS1 transgenic mice, pre-treatment, FIG. 9a): able to reverse the depression of L-LTP
- activation of GSK3β / PI3K/AKT signalling (western blot, hippocampus) [4]: prevents excessive activation of GSKβ by upregulating P13/AKT signalling
